Reference: patent US20250066338A1, “CERTAIN 3-AZABICYCLO[3.1.0]HEXANES AS GLP-1 RECEPTOR MODULATORS” (AstraZeneca AB, priority 2021, published 2025)

Columns and labels:
human GLP-1R receptor = human GLP-1R receptor (Homo sapiens (Human), UniProt P43220, L260F); assay: CHOK1 GLP-1R cAMP Assay; assay type: cell-based; conditions: CHO-K1 cell line stably expressing human GLP-1R; HTRF cAMP; agonist activity
Protocol: A cell line stably expressing the human GLP-1R receptor (NM 002062.5, including the naturally-occurring variant Leu260Phe) in a CHO-K1 (ATCC® CCL-61™) was used for assay.
GLP-1 receptor mediated agonist activity was determined in a cell based assay measuring cyclic adenosine monophosphate (cAMP) levels in cells using Homogeneous Time-Resolved Fluorescence (HTRF) cAMP detection kit (CisBio catalog #62AM4PEC, cAMP Gs Dynamic range kit). The cAMP detection method is based on a competitive immunoassay, in which cAMP produced by the cells and cAMP labeled with the dye d2 compete for binding to a Europium-Cryptate-labeled anti-cAMP antibody. The specific HTRF signal is inversely proportional to the concentration of cAMP.
Compounds were added to individual well in 384 well-assay plates (Greiner #784076) using an Echo (LabCyte) dispenser from 10 mM stocks. Varying concentration of compounds were added to wells, and DMSO was used to normalize each well to a volume of 100 nL. A dose response curve of GLP1(7-36)NH2 (Bachem H-6795) was included in each run. 5 μL of cAMP concentration response standards are applied in specified wells in the assay plates. Cryo-preserved cells are thawed and resuspended in assay buffer pre-heated to 37° C. (20 mM HEPES pH 7.4, lx Hank's Balanced Salt Solution (HBSS, Life Technologies #14065) supplemented with 0.1% (w/v) bovine serum albumin (Sigma, A-7030). Cells were centrifuged at 250*g for 5 min at rt, and resuspended in room tempered assay buffer to a final density of 0.16*10^6 cell/mL, to deliver 800 cells/well. 5 μL of assay buffer with 1 mM 3-isobutyl-1-methylxanthin (IBMX; Sigma cat I-7018) was dispensed per well in assay plates using a multidrop combi (Thermo Scientific) subsequently 5 μL of cell suspension was distributed to relevant wells in the assay using a multidrop dispenser. Assay plates were incubated 20 min at rt.
Detection reagents, Europium-Cryptate-labeled anti-cAMP antibody and cAMP labeled with the dye d2, are diluted in lysis buffer, provided by the manufacturer. 5 μL of each detection reagent is supplemented to each assay well using a multidrop dispenser. Assay plates are incubated in the dark for at least one h. The HTRF signal is measured using the HTRF module (excitation: 337 nm, emission A: 665 nm and emission B: 620 nm) in Pherastar FSX (BMG Labtech).
Raw data were converted to pM cAMP using the cAMP standard curve included in each run. Converted data were further analyzed in Genedata Screener (Genedata) and EC50 determinations were made from agonist dose-response curves analyzed with a curve fitting program using a 4-parameter logistic dose response equation (Equation y=A+((B−A)/1+((C/x)^D))) where A is no stimulation, B is full stimulation, C is the EC50 and D is the Hill slope). The percent effect was determined relative to a saturating concentration of a full GLP-1R agonist (GLP1(7-36)NH2 has 100% effect in this assay setup).

[1] = molecular target: GLP-1R in EndoC-βH1 cells (Homo sapiens (Human), UniProt P43220); assay: EndoC cAMP Accumulation Assay; assay type: cell-based; conditions: EndoC-βH1 human pancreatic beta cell line; HTRF cAMP accumulation
Chain of GLP-1R in EndoC-βH1 cells (P43220 24-463): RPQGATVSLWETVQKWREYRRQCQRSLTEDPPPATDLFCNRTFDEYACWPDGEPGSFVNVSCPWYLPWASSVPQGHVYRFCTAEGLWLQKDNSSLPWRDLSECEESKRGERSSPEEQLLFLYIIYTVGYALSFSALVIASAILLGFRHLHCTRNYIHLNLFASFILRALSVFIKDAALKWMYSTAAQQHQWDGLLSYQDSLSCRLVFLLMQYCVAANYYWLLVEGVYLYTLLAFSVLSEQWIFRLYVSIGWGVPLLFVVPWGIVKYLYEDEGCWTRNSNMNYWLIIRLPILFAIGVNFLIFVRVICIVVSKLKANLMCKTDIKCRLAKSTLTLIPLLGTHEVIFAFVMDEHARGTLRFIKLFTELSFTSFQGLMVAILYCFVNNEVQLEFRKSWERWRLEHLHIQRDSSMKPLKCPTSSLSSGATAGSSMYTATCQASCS
Source text: EndoC cAMP Accumulation Assay
A HTRF cAMP assay (cAMP Gs dynamic kit; CisoBio Cat #62AM4PEJ) was used to identify agonists of GLP-1R in a pancreatic insulinoma cell line (EndoC-βH1). […] EndoC-βH1 cells have detectable GLP-1R messenger ribonucleic acid (mRNA) as detected by quantitative polymerase chain reaction (qPCR). […] The EndoC-βH1 cell line is a valid model of human beta cells and applicable for screenings to identify novel drug target candidates (Mol. Metab., 2018, 8, 144-157). CisBio HTRF cAMP kits are based on a competitive immunoassay using cryptate-labelled anti-cAMP antibody and d2-labeled cAMP. The detection kit is intended for the direct quantitative determination of cAMP. The specific signal (i.e. energy transfer) is inversely proportional to the concentration of cAMP in the standard or sample. Test compounds (10 mM in DMSO) were diluted into assay buffer (HBSS (Sigma #H8264) supplemented with 25 mM HEPES (Gibco #15630, pH 7.4), 0.1% BSA (Sigma #A3059) and 0.5 mM IBMX (Sigma #17018) included fresh on the day of the assay) into 96 well U-bottom plates (Greiner #650201). Diluted compounds were transferred to ECHO source polypropylene plates (Labcyte #P-05525) and dose response curves were dispensed acoustically using ECHO 550 into black shallow-well u-bottom 384-well HTRF Assay Plates (Corning 4514).
Cryovials of EndoC-H1 (supplied at 1×10e^7 cells/vial) were used directly for screening. The cryovials and were removed from N2 (1) and thawed rapidly in a 37° C. water bath. The cells were resuspended in assay buffer and centrifuged at 300 g for 5 min. Cells were resuspended in assay buffer at the appropriate concentration, typically at 12e5 cells per mL (3000 cells per well, dependent on cell batch) and 2.5 μL diluted cells were added to all wells of destination plate by Multidrop combi reagent dispenser (Thermofisher). The plates were incubated at rt for 30 min. The assay was stopped by adding 2.5 μL anti-cAMP cryptate solution to all wells and 2.5 μL cAMP-d2 solution (both diluted 1:20 in lysis buffer) to columns 1-22 by Combi drop. A volume of 2.5 μL cAMP-d2 solution was added to wells E23 to P24 and 2.5 μL lysis buffer added to wells A23 to D24 by multichannel pipette. The plates were incubated at rt for 1 h and read on an Envision plate reader using excitation wavelength of 320 nm and emission of […] and 660 nm.
Raw data from Envision is converted to % DeltaF according to the manufacturer's instructions. Dose response curves are analysed via 4-Parameter Logistical Analysis and assay plate Z′ values obtained. Samples are graphed as percentage (%) activation plots compared to GIP (1-42, Bachem H-5645) with assay window defined by negative control as basal cell cAMP levels and positive control are defined by maximum GIP (82.5 nM) signal. GLP1 (7-36 amide, Bachem H-6795) dose response curve was included on all plates.

Chain of human GLP-1R receptor (P43220 24-463 L260F): as the sequence (P43220 24-463) above, with L237F counted along it

Structure (SMILES) | EC50 (human GLP-1R receptor) | EC50 [1]
CCn1cncc1Cn1c(CN2C[C@@H]3[C@H](C2)[C@H]3c2cccc(OCc3ccc(Cl)cc3F)n2)nc2c(OC)cc(C(=O)O)cc21 [Example 14, 2-(((1R,5S,6r)-6-(6-((4-Chloro-2-fluorobenzyl)oxy)pyridin-2-yl)-3-azabicyclo[3.1.0]hexan-3-yl)methyl)-1-((1-ethyl-1H-imidazol-5-yl)methyl)-4-methoxy-1H-benzo[d]imidazole-6-carboxylic acid] | 30 nM | 7.4 nM
N#Cc1ccc(COc2cccc([C@H]3[C@@H]4CN(Cc5nc6c(Cl)cc(C(=O)O)cc6n5C[C@@H]5CCO5)C[C@@H]43)n2)c(F)c1 [Example 8, 4-Chloro-2-(((1R,5S,6S)-6-(6-((4-cyano-2-fluorobenzyl)oxy)pyridin-2-yl)-3-azabicyclo[3.1.0]hexan-3-yl)methyl)-1-(((S)-oxetan-2-yl)methyl)-1H-benzo[d]imidazole-6-carboxylic acid] | 20 nM | 10 nM
N#Cc1ccc(COc2cccc([C@H]3[C@@H]4CN(Cc5nc6ccc(C(=O)O)cc6n5C[C@@H]5CCO5)C[C@@H]43)n2)c(F)c1 [Example 3, 2-(((1R,5S,6S)-6-(6-((4-Cyano-2-fluorobenzyl)oxy)pyridin-2-yl)-3-azabicyclo[3.1.0]hexan-3-yl)methyl)-1-(((S)-oxetan-2-yl)methyl)-1H-benzo[d]imidazole-6-carboxylic acid] | 75 nM | 21 nM
N#Cc1ccc(COc2ccc(F)c([C@H]3[C@@H]4CN(Cc5nc6ccc(C(=O)O)cc6n5C[C@@H]5CCO5)C[C@@H]43)n2)c(F)c1 [Example 2, 2-(((1R,5S,6S)-6-(6-((4-Cyano-2-fluorobenzyl)oxy)-3-fluoropyridin-2-yl)-3-azabicyclo[3.1.0]hexan-3-yl)methyl)-1-(((S)-oxetan-2-yl)methyl)-1H-benzo[d]imidazole-6-carboxylic acid] | 30 nM | 26 nM
COc1cc(C(=O)O)cc2c1nc(CN1C[C@@H]3[C@H](C1)[C@H]3c1cccc(OCc3ccc(Cl)cc3F)n1)n2C[C@@H]1CCO1 [Example 11, 2-(((1R,5S,6S)-6-(6-((4-Chloro-2-fluorobenzyl)oxy)pyridin-2-yl)-3-azabicyclo[3.1.0]hexan-3-yl)methyl)-4-methoxy-1-(((S)-oxetan-2-yl)methyl)-1H-benzo[d]imidazole-6-carboxylic acid] | 17 nM | 6.5 nM
COc1cc(C(=O)O)cc2c1nc(CN1C[C@@H]3[C@H](C1)[C@H]3c1cccc(OCc3ccc(C#N)cc3F)n1)n2C[C@@H]1CCO1 [Example 4, 2-(((1R,5S,6S)-6-(6-((4-Cyano-2-fluorobenzyl)oxy)pyridin-2-yl)-3-azabicyclo[3.1.0]hexan-3-yl)methyl)-4-methoxy-1-(((S)-oxetan-2-yl)methyl)-1H-benzo[d]imidazole-6-carboxylic acid] | 12 nM | 5.8 nM
COc1cc(C(=O)O)cc2c1nc(CN1C[C@@H]3[C@H](C1)[C@H]3c1nc(OCc3ccc(C#N)cc3F)ccc1F)n2C[C@@H]1CCO1 [Example 1, 2-(((1R,5S,6S)-6-(6-((4-Cyano-2-fluorobenzyl)oxy)-3-fluoropyridin-2-yl)-3-azabicyclo[3.1.0]hexan-3-yl)methyl)-4-methoxy-1-(((S)-oxetan-2-yl)methyl)-1H-benzo[d]imidazole-6-carboxylic acid] | 7.7 nM | 5 nM
Cc1cc(C(=O)O)cc2c1nc(CN1C[C@@H]3[C@H](C1)[C@H]3c1cccc(OCc3ccc(C#N)cc3F)n1)n2C[C@@H]1CCO1 [Example 9, 2-(((1R,5S,6S)-6-(6-((4-Cyano-2-fluorobenzyl)oxy)pyridin-2-yl)-3-azabicyclo[3.1.0]hexan-3-yl)methyl)-4-methyl-1-(((S)-oxetan-2-yl)methyl)-1H-benzo[d]imidazole-6-carboxylic acid] | 78 nM | 56 nM

Results, then the compound that gave them:

EC50 (human GLP-1R receptor) | EC50 [1] | Structure (SMILES)
49 nM | 34 nM | COc1cc(C(=O)O)cc2c1nc(CN1C[C@@H]3[C@H](C1)[C@H]3c1cccc(OCc3ccccc3OC(F)F)n1)n2C[C@@H]1CCO1 [Example 22, 2-(((1R,5S,6S)-6-(6-((2-(Difluoromethoxy)benzyl)oxy)pyridin-2-yl)-3-azabicyclo[3.1.0]hexan-3-yl)methyl)-4-methoxy-1-(((S)-oxetan-2-yl)methyl)-1H-benzo[d]imidazole-6-carboxylic acid]
42 nM | 88 nM | CCn1cncc1Cn1c(CN2C[C@@H]3[C@H](C2)[C@H]3c2cccc(OCc3ccc(C#N)cc3F)n2)nc2ccc(C(=O)O)cc21 [Example 10, 2-(((1R,5S,6r)-6-(6-((4-Cyano-2-fluorobenzyl)oxy)pyridin-2-yl)-3-azabicyclo[3.1.0]hexan-3-yl)methyl)-1-((1-ethyl-1H-imidazol-5-yl)methyl)-1H-benzo[d]imidazole-6-carboxylic acid]
44 nM | 1100 nM | COc1cc(C(=O)O)cc2c1nc(CN1C[C@@H]3[C@H](C1)[C@H]3c1cccc(OCc3cc(C)ccc3F)n1)n2C[C@@H]1CCO1 [Example 21, 2-(((1R,5S,6S)-6-(6-((2-Fluoro-5-methylbenzyl)oxy)pyridin-2-yl)-3-azabicyclo[3.1.0]hexan-3-yl)methyl)-4-methoxy-1-(((S)-oxetan-2-yl)methyl)-1H-benzo[d]imidazole-6-carboxylic acid]
– | 290 nM | N#Cc1ccc(COc2cccc([C@H]3[C@@H]4CN(Cc5nc6ccc(C(=O)O)cc6n5C[C@@H]5CCCO5)C[C@@H]43)n2)c(F)c1 [Example 6, 2-(((1R,5S,6S)-6-(6-((4-Cyano-2-fluorobenzyl)oxy)pyridin-2-yl)-3-azabicyclo[3.1.0]hexan-3-yl)methyl)-1-(((S)-tetrahydrofuran-2-yl)methyl)-1H-benzo[d]imidazole-6-carboxylic acid]
